Key:
germline ε promoter = test: Functional profile of BR10A1 wt and mutants in the A5T4 reporter cell line; format: cell-based, human; details: A5T4 reporter line
Protocol: Following infection, the library was enriched for cells expressing peptides that inhibit IL-4 induced ε transcription as generally outlined in the top half of FIG. 3 and sorted by FACS into single cell clones. The clones were then screened as generally illustrated in the lower half of FIG. 3. Briefly, for screening, each clone was divided into two populations and one population was treated with Dox (10 ng/ml). After 5 days, both populations were stimulated with IL-4 (final conc. 60 U/mL; PeptroTech, Inc.) and, after 3 more days, both populations were analyzed by FACS to measure BFP and GFP fluorescence. FACS data were converted to a “reporter ratio”, which is defined for this purpose as the ratio of the geometric mean of GFP fluorescence of the +IL-4/+Dox to the +IL-4/−Dox populations. Cells expressing a peptide that inhibits germline ε transcription have a reporter ratio of ≧1.1. A reporter ratio of ≧1.2 is indicative of strong inhibition.
The ability of peptide BR10A1 wt to inhibit germline ε transcription was confirmed in naive cells. Briefly, Phoenix cells were transfected with a retroviral vector encoding a BFP-BR10A1 wt peptide fusion as described in WO 99/58663 and WO 97/27213. Naïve A5T4 cells were infected with the resultant virions and grown for 3 days. The infected cells were stimulated with IL-4 (60 U/mL) and, after 3 days, the cells were assessed by FACS for BFP and GFP. […] The BFP fluorescence data corresponding to the BFP^+ and BFP^− populations are provided in Panel A. The GFP fluorescence data corresponding to the BFP^+ and BFP^− populations are presented in Panel B. The reporter ratio for this purpose is determined as the geometric mean of the GFP fluorescence of the BFP^− population divided by the geometric mean of the GFP fluorescence of the BFP^+ population. The reporter ratio for the BR10A1 in this re-infection assay was 1.27.
A collection of BR10A1 mutants was generated by replacing single or double amino acid residues in the sequence of BR10A1 wt with a different amino acid, typically an alanine or glycine, as described in copending application Ser. No.10/095,659, entitled Methods of Identifying Protein Targets, filed Mar. 8, 2002 . The functional profiles for the mutants derived from BR10A1 wt was obtained by constructing and screening for activity in the A5T4 reporter cell line in the manner described above. The activity of each mutant at the germline ε promoter is reflected in the reporter ratio as described above. The reporter ratios were the functional values that were used to develop the functional profiles. Measurement of the reporter ratios of the mutant peptides was carried out in a number of separate experiments, each time comparing the value of cells transfected with mutant peptide to that of cells transfected with control WT peptide done at the same time. The reporter ratios of the control WT peptide can vary depending upon a number of factors including the infectivity or the state of the infected cells at the time of infection.
TABLE 2 depicts the amino acid sequences (the dual alanine mutations are underlined) of the mutants tested and the measured reporter ratios when screening in the A5T4 reporter line.
Comparison of the interaction and functional profiles was performed by categorizing the mutants of BR10A1 based on the functional and interaction assays. Based on the reporter ratio, each mutant was categorized into one of four functional categories: (1) reduction of function (ROF); (2) loss of function (LOF); (3) increase of function (IOF) or (4) functionally neutral (N) as compared to the activity of the wild type peptide, here BR10A1 wt. As mentioned previously, cells expressing a peptide that inhibits germline ε transcription have reporter ratios of ≧1.1. Cells expressing a loss of function (LOF) mutant have a reporter ratio of <1.11. […] Functionally neutral mutants have reporter ratios that fall within ±50% of that of the BR10A1 wt peptide. […]

[1] = system: endogenous germline ε promoter; test: TAQMAN assay of endogenous germline ε promoter transcription in A5T4 cells; format: cell-based, human; details: relative expression units of +IL-4/+Dox to +IL-4/-Dox A5T4 cells; IL-4 60 U/ml, 3 days; average of 3 values
Protocol: The ability of peptide BR10A1 wt to inhibit transcription of an endogenous germline ε promoter was confirmed using a TAQMAN® assay (Roche Molecular, Alameda, Calif.). Briefly, A5T4 cells were infected with retrovirus capable of expressing peptide BR10A1 wt (prepared as described above). The cells were sorted for BFP^+ to select for infected cells. Infected cells were divided into two populations. One population was exposed to Dox (10 ng/ml). Both populations were stimulated with IL-4 (60 U/ml). After 3 days, the cells were pelleted and the pellets assayed for ε promoter transcription using a TAQMAN assay performed as described in Applied Biosystems Protocol 4310299 (available at http:www.appliedbiosystems.com). The primers and probe, which are specific for the transcription product driven by the A5T4 endogenous ε promoter, were as follows (the probe was labeled at the 5′-end with Fam and at the 3′-end with Tamra): […]

MQRRESCITRSVEEGWGLFYLGP (peptide encoded by random oligo-BR10A1wt) [wild-type peptide from random library, expressed in cells as BFP-peptide fusion]
Reporter Ratio (germline ε promoter; first value column (separate experiment with its own WT control)): 1.27
Reporter Ratio (germline ε promoter; fourth value column (separate experiment with its own WT control)): 1.35
Reporter Ratio (germline ε promoter; second value column (separate experiment with its own WT control)): 1.36
Reporter Ratio (germline ε promoter; separate experiment with its own WT control): 1.55
endogenous ε inhibition ratio [1]: 2.18

Source: patent US7241581B2, “Methods of identifying compounds that modulate IL-4 receptor-mediated IgE synthesis utilizing a c-MYC protein” (Rigel Pharmaceuticals, Inc., priority 2002, dated 2007)
